The target of data set [1] is T1, 5-hydroxytryptamine receptor 2C (Homo sapiens) (UniProt P28335).
T1 sequence (whole entry): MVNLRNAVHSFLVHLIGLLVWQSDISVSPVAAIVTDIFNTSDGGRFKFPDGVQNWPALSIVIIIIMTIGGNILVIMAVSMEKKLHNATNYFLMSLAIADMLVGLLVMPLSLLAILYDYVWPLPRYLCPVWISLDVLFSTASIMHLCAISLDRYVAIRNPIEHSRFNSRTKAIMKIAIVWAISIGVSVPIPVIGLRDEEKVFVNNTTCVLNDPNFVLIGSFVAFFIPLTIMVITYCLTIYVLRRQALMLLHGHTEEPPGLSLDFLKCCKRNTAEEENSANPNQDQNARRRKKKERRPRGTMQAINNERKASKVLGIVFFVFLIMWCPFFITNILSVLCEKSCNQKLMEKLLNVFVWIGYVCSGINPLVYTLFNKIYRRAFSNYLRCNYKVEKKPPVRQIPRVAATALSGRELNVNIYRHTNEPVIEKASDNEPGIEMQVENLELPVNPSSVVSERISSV
Put plainly: Efficacy against human recombinant 5HT2C receptor expressed in CHO cells at 1 uM in relative to 10 uM 5HT by FLIPR. Type of data set: functional, cell-based.

In data set [2] the target is T2, 5-hydroxytryptamine receptor 2A (Homo sapiens, UniProt P28223). Put plainly: Displacement of [125I]DOI from human recombinant 5HT2A receptor expressed in CHO cells. The format is cell-based. (In a radioligand displacement assay an active substance lowers the binding of a labelled ligand.)
Data set [3] has as its target T3, 5-hydroxytryptamine receptor 2B (Homo sapiens, UniProt P41595). The data set can be described thus: Displacement of [3H]5HT from human recombinant 5HT2B receptor expressed in CHO cells. The format is cell-based.
For data set [4], the target named is T4, 5-hydroxytryptamine receptor 2C (Homo sapiens, UniProt P28335).
T4 sequence (P28335 whole entry): T1 sequence (whole entry)
The data set can be described thus: Displacement of [3H]5HT from human recombinant 5HT2C receptor expressed in CHO cells. Type of data set: cell-based.

The test system of data set [5] is Phospholipidosis. Put plainly: In vitro phospholipidosis in fibroblasts at 7.5uM. The format is ADME, cell-based. The conditions noted are these: fibroblast.
The next data set deals with hERG (KCNH2) (Homo sapiens, UniProt Q12809). The data set can be described thus: Inhibition of hERG potassium channel expressed in CHO cells by whole cell patch clamp method at 10 uM. The format is toxicity, cell-based. The note with it: CHO cells expressing hERG. For orientation: The hERG channel carries a current that helps repolarise heart muscle cells.
Data set [6] addresses Voltage-gated inwardly rectifying potassium channel KCNH2 (Homo sapiens, UniProt Q12809). The data set can be described thus: Inhibition of hERG potassium channel expressed in CHO cells by whole cell patch clamp method. Type of data set: toxicity, cell-based.
In data set [7] the test system is Phospholipidosis. The data set can be described thus: In vitro phospholipidosis in fibroblasts at 20uM. Type of data set: ADME.
Data set [8] concerns the target T3, 5-hydroxytryptamine receptor 2B. Put plainly: Efficacy against human recombinant 5HT2B receptor induced intracellular calcium mobilization in CHO cells by FLIPR. The format is functional, cell-based.
Data set [9] addresses T4, 5-hydroxytryptamine receptor 2C. Put plainly: Efficacy against human recombinant 5HT2C receptor induced intracellular calcium mobilization in CHO cells by FLIPR. (In general: A change in cytosolic calcium serves as a functional read-out for many receptors and channels.)
The target of data set [10] is 5-hydroxytryptamine receptor 1D (Homo sapiens, UniProt P28221). Put plainly: Binding affinity to 5HT1D receptor.
For data set [11], the target named is 5-hydroxytryptamine receptor 1A (Homo sapiens, UniProt P08908). The data set can be described thus: Binding affinity to 5HT1A receptor.
Data set [12] has as its target 5-hydroxytryptamine receptor 1B (Homo sapiens, UniProt P28222). Put plainly: Binding affinity to 5HT1B receptor.
The target of data set [13] is 5-hydroxytryptamine receptor 5A (Homo sapiens, UniProt P47898). The data set can be described thus: Binding affinity to 5HT5A receptor.
The target of data set [14] is 5-hydroxytryptamine receptor 6 (Homo sapiens, UniProt P50406). Put plainly: Binding affinity to 5HT6 receptor.
The target in data set [15] is Adrenergic receptor alpha-1 (Homo sapiens, UniProt P35348+P25100+P35368). Put plainly: Binding affinity to alpha-1 adrenergic receptor. Type of data set: protein assay.
For a further data set, the target named is D(4) dopamine receptor (Homo sapiens, UniProt P21917). The data set can be described thus: Binding affinity to D4 receptor.
The target in data set [16] is Serotonin 3 (5-HT3) receptor. The data set can be described thus: Binding affinity to 5HT3 receptor. Type of data set: protein-complex assay, Homo sapiens.
Data set [17] has as its target 5-hydroxytryptamine receptor 7 (Homo sapiens, UniProt P34969). Put plainly: Binding affinity to 5HT7 receptor.
The target in data set [18] is Beta-1 adrenergic receptor (Homo sapiens, UniProt P08588). Put plainly: Binding affinity to beta-1 adrenergic receptor.
A further data set has as its target Mu-type opioid receptor (Homo sapiens, UniProt P35372). The data set can be described thus: Binding affinity to mu type opioid receptor.
For data set [19], the target named is Sodium-dependent serotonin transporter (Homo sapiens, UniProt P31645). The data set can be described thus: Binding affinity to 5HT transporter.
In data set [20] the target is Sodium-dependent noradrenaline transporter (Homo sapiens, UniProt P23975). The data set can be described thus: Binding affinity to NA transporter.
In data set [21] the target is Sodium-dependent dopamine transporter (Homo sapiens, UniProt Q01959). The data set can be described thus: Binding affinity to DA transporter.
Data set [22] in a line: Binding affinity to sodium channel.
Another data set relates to Rattus norvegicus. Put plainly: Reduction of food intake in po dosed Hooded Lister rat. Type of data set: functional. The conditions noted are these: read-out: MED.
Data set [23] concerns the target T2, 5-hydroxytryptamine receptor 2A.
Description: Binding affinity to human recombinant 5HT2A receptor

What is called Ki is the dissociation constant of the complex between target and ligand, obtained from inhibition or displacement. As usually defined, the inhibition is the share of the control response that was lost under treatment. Low values mean a response near the control, high ones a response far below the control. One may read the IC50 as the concentration that inhibits the measured activity by half. In general, EC50 refers to the concentration needed to bring the measured effect to its halfway point. As usually defined, the Emax is the maximal effect, on the per cent scale that the assay sets. For orientation: pKb means the negative decadic logarithm of the Kb, by convention in mol/L.

T3 sequence (P41595 whole entry): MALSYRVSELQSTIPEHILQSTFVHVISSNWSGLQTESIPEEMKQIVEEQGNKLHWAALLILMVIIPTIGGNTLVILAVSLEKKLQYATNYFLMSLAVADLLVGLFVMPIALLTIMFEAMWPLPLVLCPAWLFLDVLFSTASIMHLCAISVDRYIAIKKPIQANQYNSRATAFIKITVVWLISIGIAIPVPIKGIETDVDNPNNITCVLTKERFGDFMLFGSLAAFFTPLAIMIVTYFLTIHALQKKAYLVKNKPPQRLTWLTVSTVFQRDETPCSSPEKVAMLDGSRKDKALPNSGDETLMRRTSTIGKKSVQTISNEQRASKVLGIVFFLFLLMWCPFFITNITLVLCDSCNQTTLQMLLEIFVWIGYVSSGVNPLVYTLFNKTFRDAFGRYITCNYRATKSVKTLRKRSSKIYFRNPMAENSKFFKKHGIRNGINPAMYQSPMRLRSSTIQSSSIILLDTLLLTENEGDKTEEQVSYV
T2 sequence (P28223 whole entry): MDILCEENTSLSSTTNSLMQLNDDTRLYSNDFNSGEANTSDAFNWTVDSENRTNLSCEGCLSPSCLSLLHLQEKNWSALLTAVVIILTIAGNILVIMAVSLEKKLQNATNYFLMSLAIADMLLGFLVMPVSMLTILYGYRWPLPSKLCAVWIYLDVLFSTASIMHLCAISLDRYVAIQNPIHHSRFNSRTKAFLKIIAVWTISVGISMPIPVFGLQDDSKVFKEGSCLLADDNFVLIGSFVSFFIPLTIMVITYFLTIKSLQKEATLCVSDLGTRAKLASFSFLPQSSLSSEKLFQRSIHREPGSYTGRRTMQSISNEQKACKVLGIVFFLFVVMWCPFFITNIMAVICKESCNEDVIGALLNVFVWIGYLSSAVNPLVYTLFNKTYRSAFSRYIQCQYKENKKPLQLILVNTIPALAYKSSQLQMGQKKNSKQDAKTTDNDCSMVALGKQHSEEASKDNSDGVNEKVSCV
Sequence of Voltage-gated inwardly rectifying potassium channel KCNH2 (Q12809 whole entry): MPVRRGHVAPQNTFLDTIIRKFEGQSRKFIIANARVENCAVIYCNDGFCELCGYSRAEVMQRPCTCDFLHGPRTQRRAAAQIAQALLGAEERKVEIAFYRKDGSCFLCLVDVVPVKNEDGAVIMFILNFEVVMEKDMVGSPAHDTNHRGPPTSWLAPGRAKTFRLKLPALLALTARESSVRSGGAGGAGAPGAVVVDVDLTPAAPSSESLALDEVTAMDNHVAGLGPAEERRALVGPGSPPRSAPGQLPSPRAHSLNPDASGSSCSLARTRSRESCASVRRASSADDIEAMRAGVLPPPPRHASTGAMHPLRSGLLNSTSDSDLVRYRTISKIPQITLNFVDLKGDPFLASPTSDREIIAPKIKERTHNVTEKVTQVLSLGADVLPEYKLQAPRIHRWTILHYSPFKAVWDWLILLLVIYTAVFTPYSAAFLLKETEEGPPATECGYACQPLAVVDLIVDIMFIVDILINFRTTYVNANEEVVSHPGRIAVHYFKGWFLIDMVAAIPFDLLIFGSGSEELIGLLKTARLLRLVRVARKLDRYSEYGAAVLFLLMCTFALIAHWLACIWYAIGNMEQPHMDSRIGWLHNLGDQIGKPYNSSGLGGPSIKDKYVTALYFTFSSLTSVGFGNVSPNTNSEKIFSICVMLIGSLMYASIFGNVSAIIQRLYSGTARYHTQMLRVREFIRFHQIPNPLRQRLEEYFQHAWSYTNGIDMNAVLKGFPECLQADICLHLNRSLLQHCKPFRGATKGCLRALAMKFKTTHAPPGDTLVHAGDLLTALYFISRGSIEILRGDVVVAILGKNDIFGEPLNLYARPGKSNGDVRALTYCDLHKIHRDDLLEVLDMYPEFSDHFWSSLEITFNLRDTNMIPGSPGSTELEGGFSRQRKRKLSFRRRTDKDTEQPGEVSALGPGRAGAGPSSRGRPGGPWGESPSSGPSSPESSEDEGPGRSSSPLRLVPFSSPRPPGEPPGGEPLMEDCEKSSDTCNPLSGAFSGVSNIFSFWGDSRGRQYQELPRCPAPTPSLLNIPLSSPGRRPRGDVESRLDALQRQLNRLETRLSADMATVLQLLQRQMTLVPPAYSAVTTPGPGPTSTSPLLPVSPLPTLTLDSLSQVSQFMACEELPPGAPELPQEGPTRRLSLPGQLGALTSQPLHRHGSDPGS
Sequence of Mu-type opioid receptor (P35372 whole entry): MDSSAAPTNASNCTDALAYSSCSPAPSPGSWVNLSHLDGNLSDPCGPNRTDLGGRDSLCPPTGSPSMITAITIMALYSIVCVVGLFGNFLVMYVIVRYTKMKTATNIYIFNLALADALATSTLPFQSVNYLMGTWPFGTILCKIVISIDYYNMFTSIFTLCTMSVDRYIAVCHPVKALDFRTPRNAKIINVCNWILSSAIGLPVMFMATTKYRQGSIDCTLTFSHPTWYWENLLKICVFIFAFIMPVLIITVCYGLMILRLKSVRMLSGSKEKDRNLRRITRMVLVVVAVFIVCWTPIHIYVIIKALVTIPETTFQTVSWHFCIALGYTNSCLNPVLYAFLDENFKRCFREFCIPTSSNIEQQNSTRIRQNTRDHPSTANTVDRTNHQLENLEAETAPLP
Sequence of Sodium-dependent noradrenaline transporter (P23975 whole entry): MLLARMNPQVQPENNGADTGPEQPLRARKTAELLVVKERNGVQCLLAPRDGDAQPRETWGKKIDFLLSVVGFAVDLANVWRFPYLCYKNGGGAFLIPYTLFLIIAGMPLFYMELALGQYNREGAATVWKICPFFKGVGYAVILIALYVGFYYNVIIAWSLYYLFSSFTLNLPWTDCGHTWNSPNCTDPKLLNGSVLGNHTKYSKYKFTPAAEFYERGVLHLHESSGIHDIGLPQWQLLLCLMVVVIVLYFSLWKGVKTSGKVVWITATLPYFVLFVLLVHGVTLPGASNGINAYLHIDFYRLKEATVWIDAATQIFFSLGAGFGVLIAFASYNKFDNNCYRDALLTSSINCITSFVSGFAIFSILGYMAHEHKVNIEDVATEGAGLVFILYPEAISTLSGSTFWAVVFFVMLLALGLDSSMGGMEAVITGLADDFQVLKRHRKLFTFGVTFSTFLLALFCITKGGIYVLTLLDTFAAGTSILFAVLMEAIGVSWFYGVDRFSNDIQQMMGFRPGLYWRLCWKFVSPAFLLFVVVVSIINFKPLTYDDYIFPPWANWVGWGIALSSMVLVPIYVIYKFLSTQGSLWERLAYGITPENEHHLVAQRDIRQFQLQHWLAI
Sequence of 5-hydroxytryptamine receptor 5A (P47898 whole entry): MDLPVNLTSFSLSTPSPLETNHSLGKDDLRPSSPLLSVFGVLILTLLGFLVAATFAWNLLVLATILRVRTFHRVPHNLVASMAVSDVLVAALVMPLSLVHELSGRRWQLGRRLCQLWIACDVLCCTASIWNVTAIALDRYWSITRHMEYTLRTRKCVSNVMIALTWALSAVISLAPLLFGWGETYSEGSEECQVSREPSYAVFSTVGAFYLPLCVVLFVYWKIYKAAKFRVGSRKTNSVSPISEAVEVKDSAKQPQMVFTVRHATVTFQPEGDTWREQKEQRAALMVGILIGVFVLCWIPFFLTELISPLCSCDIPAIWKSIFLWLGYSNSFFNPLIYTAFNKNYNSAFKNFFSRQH
Sequence of 5-hydroxytryptamine receptor 1D (P28221 whole entry): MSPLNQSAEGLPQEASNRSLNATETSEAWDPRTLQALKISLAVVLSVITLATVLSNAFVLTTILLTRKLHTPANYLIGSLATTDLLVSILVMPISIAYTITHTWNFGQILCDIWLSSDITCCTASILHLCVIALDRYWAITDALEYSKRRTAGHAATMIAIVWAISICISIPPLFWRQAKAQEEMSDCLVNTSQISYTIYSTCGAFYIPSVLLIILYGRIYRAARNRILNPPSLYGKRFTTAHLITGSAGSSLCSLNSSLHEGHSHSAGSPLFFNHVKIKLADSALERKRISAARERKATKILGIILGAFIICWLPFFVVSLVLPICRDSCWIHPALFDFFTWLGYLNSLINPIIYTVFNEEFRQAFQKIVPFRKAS
Sequence of D(4) dopamine receptor (P21917 whole entry): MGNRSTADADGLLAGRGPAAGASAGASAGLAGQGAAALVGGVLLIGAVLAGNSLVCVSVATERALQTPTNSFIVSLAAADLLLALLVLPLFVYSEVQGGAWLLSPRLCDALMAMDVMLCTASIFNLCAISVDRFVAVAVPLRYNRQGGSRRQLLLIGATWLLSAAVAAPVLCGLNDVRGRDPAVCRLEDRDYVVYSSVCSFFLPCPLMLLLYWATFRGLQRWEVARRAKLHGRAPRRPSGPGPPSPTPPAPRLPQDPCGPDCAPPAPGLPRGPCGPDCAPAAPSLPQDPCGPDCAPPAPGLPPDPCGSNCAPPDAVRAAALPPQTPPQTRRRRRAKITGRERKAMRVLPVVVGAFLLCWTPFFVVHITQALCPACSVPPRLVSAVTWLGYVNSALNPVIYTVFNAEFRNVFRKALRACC
Sequence of 5-hydroxytryptamine receptor 6 (P50406 whole entry): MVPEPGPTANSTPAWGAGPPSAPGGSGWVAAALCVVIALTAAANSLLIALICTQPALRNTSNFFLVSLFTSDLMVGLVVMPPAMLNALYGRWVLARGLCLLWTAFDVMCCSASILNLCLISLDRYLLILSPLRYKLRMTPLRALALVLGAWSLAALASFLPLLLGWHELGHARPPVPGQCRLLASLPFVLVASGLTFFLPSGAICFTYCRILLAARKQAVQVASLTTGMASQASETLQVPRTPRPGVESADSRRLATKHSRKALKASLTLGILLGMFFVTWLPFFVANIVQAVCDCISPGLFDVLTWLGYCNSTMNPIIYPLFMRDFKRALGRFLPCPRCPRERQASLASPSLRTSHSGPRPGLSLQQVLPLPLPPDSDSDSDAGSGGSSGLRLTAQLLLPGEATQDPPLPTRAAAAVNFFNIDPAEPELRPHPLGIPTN

Turning to `COCc1ccc2c(n1)N1[C@@H](CNC[C@H]1C)C2`, the Efficacy in data set [1] is 97%. Further, the inhibition constant Ki in data set [2] is 0.565 µM; in [3], 0.379 µM; in data set [4] it was 0.016 µM.

As for `Cc1c(Cl)ccc2c1N1[C@H](CNC[C@H]1C)C2`, the Ki in data set [2] came out at 0.019 µM; in data set [3], 0.04 µM. Also, the Phospholipidosis with Phospholipidosis [5] was 7.5 µM.

Take `C[C@@H]1CNC[C@H]2Cc3ccc(C(F)(F)F)nc3N21`: the Efficacy in data set [1] is 96%. Also, the Ki stood at 0.043 µM in [2], 0.068 µM in data set [3] and 0.014 µM in data set [4].

In the case of `C[C@@H]1CNC[C@H]2Cc3ccc(C#N)nc3N21`, the Efficacy in data set [1] worked out at 85%. Besides, the Ki in data set [2] was 2.55 µM; in [3] it was 1.82 µM; in [4] it was 0.06 µM.

Turning to `CC(=O)Nc1ccc2c(n1)N1[C@@H](CNC[C@H]1C)C2`, the Efficacy in [1] is 0%.

Take `C[C@@H]1CNC[C@@H]2Cc3ccc(Br)nc3N21`: in data set [1], the Efficacy stood at 87%. The inhibition constant (Ki) stood at 0.058 µM in data set [2], 0.166 µM in [3] and 0.021 µM in [4].

Turning to `Clc1ccc2c(n1)N1CCNCC1C2` (centres undefined), the Ki in [2] amounted to 0.217 µM; in [3], 0.221 µM; in data set [4] it was 0.131 µM.

Regarding `C[C@@H]1CNC[C@H]2Cc3ccc(Br)nc3N21`, the Efficacy in [1] is 97%. The results for the Ki in data set [2], in data set [3] and in [4] were 0.053 µM, 0.081 µM and 0.0008 µM, respectively.

Take `C[C@@H]1CNC[C@H]2Cc3ccc(CO)nc3N21`: the Efficacy in data set [1] worked out at 88%. The Ki in data set [2] was 0.942 µM; in data set [3], 1.14 µM; in [4], 0.054 µM.

For the compound `CCO[C@@H](C)c1ccc2c(n1)N1[C@@H](CNC[C@H]1C)C2`, the Efficacy in data set [1] worked out at 83%. Moreover, the Ki in [2] stood at 0.065 µM; in data set [3] it was 0.295 µM; in [4], 0.0023 µM. Moreover, 10 µM produced 20% inhibition against hERG (KCNH2).

In the case of `Cc1ccc2c(n1)N1[C@@H](CNC[C@H]1C)C2`, the Efficacy in data set [1] turned out to be 101%. The Ki in data set [2] turned out to be 0.136 µM; in [3] it was 0.077 µM; in [4] it was 0.0027 µM. The compound further came in with an IC50 in data set [6] of 21 µM. Moreover, the Phospholipidosis entry with Phospholipidosis [7] is “Not Active”.

On to `COc1ccc2c(n1)N1[C@@H](CNC[C@H]1C)C2`, for which, in [1], the Efficacy was found to be 77%. The Ki in [2] came to 0.511 µM; in data set [3], 0.44 µM; in data set [4] it was 0.104 µM.

In the case of `CCO[C@H](C)c1ccc2c(n1)N1[C@@H](CNC[C@H]1C)C2`, the Efficacy in data set [1] was determined as 86%. The values for the Ki in [2], in [3] and in data set [4] were 2.38 µM, 1.31 µM and 0.093 µM, respectively.

Consider `C[C@H](O)c1ccc2c(n1)N1[C@@H](CNC[C@H]1C)C2`, for which the Efficacy in [1] was determined as 101%. The Ki came out at 0.392 µM in [2], 0.835 µM in data set [3] and 0.039 µM in data set [4].

On to `C[C@@H]1CNC[C@H]2Cc3ccc(COCC4CC4)nc3N21`, for which the Efficacy in data set [1] came out at 87%. Also, the Ki in [2] was 0.074 µM; in data set [3], 0.174 µM; in [4], 0.0036 µM; in data set [10], > 0.36 µM; in data set [11], > 0.72 µM; in data set [12] it was > 0.72 µM. Besides, the Ki in data set [13] is > 0.72 µM; in data set [14] it was > 0.72 µM; in data set [15] it was > 1 µM; at D(4) dopamine receptor, > 0.72 µM; in data set [16] it was > 1 µM; in data set [17], > 1 µM. Moreover, the Ki (in data set [18]; at Mu-type opioid receptor; in data set [19]; in data set [20]; in data set [21]; in [22]) was > 1 µM in each case. The EC50 in data set [8] was 0.023 µM; in data set [9], 0.015 µM. For the same compound, in [8], the Emax was determined as 31%. In the data set on Rattus norvegicus, the minimal effective dose is 10 mg/kg. Further, the IC50 in [6] is > 30 µM. Also, the Phospholipidosis result in the data set with Phospholipidosis [7] is on record as “Not Active”. Moreover, the pKb in data set [23] was 6.7.

Take `C[C@@H]1CNC[C@@H]2Cc3ccc(Cl)nc3N21`: the Efficacy in data set [1] worked out at 81%. Moreover, the Ki in [2] was 0.054 µM; in data set [3] it was 0.217 µM; in [4], 0.052 µM.

As for `C[C@@H]1CNC[C@H]2Cc3ccc(Cl)nc3N21`, in [1], the Efficacy was found to be 98%. In addition, the Ki was determined as 0.042 µM in data set [2], 0.048 µM in [3] and 0.0016 µM in data set [4]. The compound further came in with an IC50 in [6] of 40 µM.

For the origin of these results see ChEMBL document CHEMBL1139653, “Synthesis and biological evaluation of novel hexahydro-pyrido[3',2':4,5]pyrrolo[1,2-a]pyrazines as potent and selective 5-HT(2C) receptor agonists” (Bioorg Med Chem Lett, 2006).
